Test results as given in patent publication US9260425B2 (Genetech, Inc., priority 2011, dated 2016).
pKi: −log10 of the molar value.

Target: Pim-1 (Homo sapiens (Human), UniProt P11309)
Experiment: Pim kinase binding activity assay (Example 901), PIM-1 enzyme, Caliper microfluidic peptide phosphorylation
Format: biochemical
Conditions: 20 pM PIM-1, 10 μM ATP, 1 μM FAM-peptide, 90 minutes at room temperature
Method in brief: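 The readout was microfluidic mobility-shift separation of a FAM-tagged Pim-specific peptide, excited at 488 nm and read at 530 nm, with Ki calculated from percent conversion. Reactions held 20 pM PIM-1, 1 μM peptide and 10 μM ATP in pH 7.2 HEPES/MgCl2/DTT buffer, ran 90 min at room temperature and were stopped with EDTA.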

Pim-1, sequence (P11309 whole entry): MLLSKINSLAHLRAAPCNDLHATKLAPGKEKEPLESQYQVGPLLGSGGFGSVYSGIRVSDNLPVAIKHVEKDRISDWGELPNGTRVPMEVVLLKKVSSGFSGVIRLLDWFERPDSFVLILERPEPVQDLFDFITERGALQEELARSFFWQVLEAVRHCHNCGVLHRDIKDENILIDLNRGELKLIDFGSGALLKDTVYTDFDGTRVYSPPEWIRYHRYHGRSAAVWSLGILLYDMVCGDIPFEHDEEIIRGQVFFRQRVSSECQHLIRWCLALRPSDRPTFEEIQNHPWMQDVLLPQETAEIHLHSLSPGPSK

SMILES	pKi
Cn1cc(-c2cc3c(-c4ccc(Br)c(N5CCC[C@H](O)C5)n4)n[nH]c3cn2)cn1 [Example 393, (S)-1-(3-bromo-6-(5-(1-methyl-1H-pyrazol-4-yl)-1H-pyrazolo[3,4-c]pyridin-3-yl)pyridin-2-yl)piperidin-3-ol]	9.48
Cn1cc(-c2cc3c(-c4ccccn4)n[nH]c3cn2)cn1 [Example 332, 5-(1-methyl-1H-pyrazol-4-yl)-3-(pyridin-2-yl)-1H-pyrazolo[3,4-c]pyridine]	8.11
C=C(C)c1ccc(-c2n[nH]c3cnc(-c4cnn(C)c4)cc23)nc1N1CCC[C@H](N)C1 [Example 414, (S)-1-(6-(5-(1-methyl-1H-pyrazol-4-yl)-1H-pyrazolo[3,4-c]pyridin-3-yl)-3-(prop-1-en-2-yl)pyridin-2-yl)piperidin-3-amine]	10.55
c1cc(-c2n[nH]c3cnc(C4CCCOC4)cc23)nc(N2CCNCC2)c1 (stereo not drawn) [Example 181, 3-(6-(piperazin-1-yl)pyridin-2-yl)-5-(tetrahydro-2H-pyran-3-yl)-1H-pyrazolo[3,4-c]pyridine]	8.40
c1ccc(-c2n[nH]c3cnc(-c4cccnc4)cc23)nc1 [Example 204, 3-(pyridin-2-yl)-5-(pyridin-3-yl)-1H-pyrazolo[3,4-c]pyridine]	7.94
NC1CCN(c2cc(-c3n[nH]c4cnc(-c5cccnc5)cc34)ccn2)CC1 [Example 160]	8.56
N[C@H]1CCCN(c2nc(-c3n[nH]c4cnc(-c5cccnc5)cc34)ccc2Br)CC1 [Example 312, (S)-1-(3-bromo-6-(5-(pyridin-3-yl)-1H-pyrazolo[3,4-c]pyridin-3-yl)pyridin-2-yl)azepan-4-amine]	10.54
CCn1cc(-c2cc3c(-c4ccc(Br)c(N5CCNCC5)n4)n[nH]c3cn2)cn1 [Example 404, 3-(5-bromo-6-(piperazin-1-yl)pyridin-2-yl)-5-(1-ethyl-1H-pyrazol-4-yl)-1H-pyrazolo[3,4-c]pyridine]	10.05
CCn1cc(-c2cc3c(-c4cc(C#N)cc(N5CCCNCC5)n4)n[nH]c3cn2)cn1 [Example 490, 2-(1,4-diazepan-1-yl)-6-(5-(1-ethyl-1H-pyrazol-4-yl)-1H-pyrazolo[3,4-c]pyridin-3-yl)isonicotinonitrile]	9.97
Cc1cncc(-c2cc3c(-c4cccc(N5CCNCC5)n4)n[nH]c3cn2)c1 [Example 384, 5-(5-methylpyridin-3-yl)-3-(6-(piperazin-1-yl)pyridin-2-yl)-1H-pyrazolo[3,4-c]pyridine]	10.39
CN1CCN(c2cc3c(-c4ccccc4F)n[nH]c3cn2)CC1=O [Example 339, 4-(3-(2-fluorophenyl)-1H-pyrazolo[3,4-c]pyridin-5-yl)-1-methylpiperazin-2-one]	5.26
N[C@@H]1CCN(c2cccc(-c3n[nH]c4cnc(-c5cccnc5)cc34)n2)C1 [Example 276, (R)-1-(6-(5-(pyridin-3-yl)-1H-pyrazolo[3,4-c]pyridin-3-yl)pyridin-2-yl)pyrrolidin-3-amine]	9.73
c1cncc(-c2cc3c(N4CCC(N5CCNCC5)C4)n[nH]c3cn2)c1 (stereo not drawn) [Example 320, 3-(3-(piperazin-1-yl)pyrrolidin-1-yl)-5-(pyridin-3-yl)-1H-pyrazolo[3,4-c]pyridine]	8.41
CCn1cc(-c2cc3c(-c4ccccn4)n[nH]c3cn2)cn1 [Example 508, 5-(1-ethyl-1H-pyrazol-4-yl)-3-(pyridin-2-yl)-1H-pyrazolo[3,4-c]pyridine]	7.97
Cn1cc(-c2cc3c(CC#N)n[nH]c3cn2)cn1 [Example 135, 2-(5-(1-methyl-1H-pyrazol-4-yl)1H-pyrazolo[3,4-c]pyridin-3-yl)acetonitrile]	6.41
N[C@@H]1CCCN(c2ccc(-c3n[nH]c4cnc(-c5cccnc5)cc34)cn2)C1 [Example 191, (R)-1-(5-(5-(pyridin-3-yl)-1H-pyrazolo[3,4-c]pyridin-3-yl)pyridin-2-yl)piperidin-3-amine]	9.39
Cn1cc(-c2cc3c(-c4cccc(NC5CCNCC5)n4)n[nH]c3cn2)cn1 [Example 200, 6-(5-(1-methyl-1H-pyrazol-4-yl)-1H-pyrazolo[3,4-c]pyridin-3-yl)-N-(piperidin-4-yl)pyridin-2-amine]	10.04
NC1CCCN(c2cccc(-c3n[nH]c4cnc(-c5cccnc5)cc34)n2)CC1 (stereo not drawn) [Example 197, 1-(6-(5-(pyridin-3-yl)-1H-pyrazolo[3,4-c]pyridin-3-yl)pyridin-2-yl)azepan-4-amine]	10.42
NC(=O)[C@@H]1CCCN1c1ccc(-c2n[nH]c3cnc(-c4cccnc4)cc23)nc1 [Example 344, (S)-1-(6-(5-(pyridin-3-yl)-1H-pyrazolo[3,4-c]pyridin-3-yl)pyridin-3-yl)pyrrolidine-2-carboxamide]	8.41
Cc1n[nH]c2cnc(-c3cnn(C4COC4)c3)cc12 [Example 114, 3-methyl-5-(1-(oxetan-3-yl)-1H-pyrazol-4-yl)-1H-pyrazolo[3,4-c]pyridine]	6.07

SMILES	pKi
N[C@@H]1CCCN(Cc2n[nH]c3cnc(-c4cccnc4)cc23)C1 [Example 105, (R)-1-((5-(pyridin-3-yl)-1H-pyrazolo[3,4-c]pyridin-3-yl)methyl)piperidin-3-amine]	5.47
CCn1cc(-c2cc3c(-c4cccc(N5CCC[C@@](C)(O)C5)n4)n[nH]c3cn2)cn1 [Example 460, (R)-1-(6-(5-(1-ethyl-1H-pyrazol-4-yl)-1H-pyrazolo[3,4-c]pyridin-3-yl)pyridin-2-yl)-3-methylpiperidin-3-ol]	9.58
N#Cc1cc(-c2n[nH]c3cnc(-c4cccnc4)cc23)cc(N2CCNCC2)c1 [Example 240, 3-(piperazin-1-yl)-5-(5-(pyridin-3-yl)-1H-pyrazolo[3,4-c]pyridin-3-yl)benzonitrile]	8.28
CCn1cc(-c2cc3c(-c4cccc(N5CCNC(C(F)(F)F)C5)n4)n[nH]c3cn2)cn1 (stereo not drawn) [Example 468, 5-(1-ethyl-1H-pyrazol-4-yl)-3-(6-(3-(trifluoromethyl)piperazin-1-yl)pyridin-2-yl)-1H-pyrazolo[3,4-c]pyridine]	10.22
NC1CCCCN(c2cccc(-c3n[nH]c4cnc(-c5cnn(CCF)c5)cc34)n2)C1 (stereo not drawn) [Example 514, 1-(6-(5-(1-(2-fluoroethyl)-1H-pyrazol-4-yl)-1H-pyrazolo[3,4-c]pyridin-3-yl)pyridin-2-yl)azepan-3-amine]	10.11
O=C1CN(c2cccc(-c3n[nH]c4cnc(-c5cccnc5)cc34)n2)CCCN1 [Example 322, 4-(6-(5-(pyridin-3-yl)-1H-pyrazolo[3,4-c]pyridin-3-yl)pyridin-2-yl)-1,4-diazepan-2-one]	9.49
O=C1CNCCN1c1cc2c(-c3cccc(N4CCNCC4)n3)n[nH]c2cn1 [Example 346, 1-(3-(6-(piperazin-1-yl)pyridin-2-yl)-1H-pyrazolo[3,4-c]pyridin-5-yl)piperazin-2-one]	6.66
CN1CC(c2cc3c(-c4ccccc4)n[nH]c3cn2)=CC1=O [Example 259, 1-methyl-4-(3-phenyl-1H-pyrazolo[3,4-c]pyridin-5-yl)-1H-pyrrol-2(5H)-one]	6.04
N[C@@H]1CCCN(c2cccc(-c3n[nH]c4cnc(N5CCOC5=O)cc34)n2)C1 [Example 370, (R)-3-(3-(6-(3-aminopiperidin-1-yl)pyridin-2-yl)-1H-pyrazolo[3,4-c]pyridin-5-yl)oxazolidin-2-one]	6.74
O=C1N(c2n[nH]c3cnc(-c4cccnc4)cc23)CCC12CCNCC2 [Example 295, 2-(5-(pyridin-3-yl)-1H-pyrazolo[3,4-c]pyridin-3-yl)-2,8-diazaspiro[4.5]decan-1-one]	7.40
C=C(C)c1ccc(-c2n[nH]c3cnc(-c4cnn(CC)c4)cc23)nc1N1CCC[C@H](N)C1 [Example 427, (S)-1-(6-(5-(1-ethyl-1H-pyrazol-4-yl)-1H-pyrazolo[3,4-c]pyridin-3-yl)-3-(prop-1-en-2-yl)pyridin-2-yl)piperidin-3-amine]	10.80
O=C1N(CC2CCNCC2)CCN1c1n[nH]c2cnc(-c3cccnc3)cc12 [Example 296, 1-(piperidin-4-ylmethyl)-3-(5-(pyridin-3-yl)-1H-pyrazolo[3,4-c]pyridin-3-yl)imidazolidin-2-one]	8.01
N[C@H]1CCCCN(c2cccc(-c3n[nH]c4cnc(-c5cnn(CCF)c5)cc34)n2)C1 [Example 519, (S)-1-(6-(5-(1-(2-fluoroethyl)-1H-pyrazol-4-yl)-1H-pyrazolo[3,4-c]pyridin-3-yl)pyridin-2-yl)azepan-3-amine]	10.60
O=C1CCCCN1c1n[nH]c2cnc(-c3cccnc3)cc12 [Example 260, 1-(5-(pyridin-3-yl)-1H-pyrazolo[3,4-c]pyridin-3-yl)piperidin-2-one]	5.96
Cc1ccc(-c2n[nH]c3cnc(-c4cccnc4)cc23)nc1N1CC(N2CCNC(=O)C2)C1 [Example 426, 4-(1-(3-methyl-6-(5-(pyridin-3-yl)-1H-pyrazolo[3,4-c]pyridin-3-yl)pyridin-2-yl)azetidin-3-yl)piperazin-2-one]	9.34
C#Cc1ccc(-c2n[nH]c3cnc(-c4cccnc4)cc23)nc1N1CCC[C@H](N)C1 [Example 342, (S)-1-(3-ethynyl-6-(5-(pyridin-3-yl)-1H-pyrazolo[3,4-c]pyridin-3-yl)pyridin-2-yl)piperidin-3-amine]	11.00
NC[C@H]1CCN(c2cncc(-c3n[nH]c4cnc(-c5cccnc5)cc34)c2)C1 [Example 168, (R)-(1-(5-(5-(pyridin-3-yl)-1H-pyrazolo[3,4-c]pyridin-3-yl)pyridin-3-yl)pyrrolidin-3-yl)methanamine]	8.80
Fc1ccccc1-c1n[nH]c2cnc(-c3cnccc3OCC3CCNCC3)cc12 [Example 155, 3-(2-fluorophenyl)-5-(4-(piperidin-4-ylmethoxy)pyridin-3-yl)-1H-pyrazolo[3,4-c]pyridine]	9.21
NC(=O)c1ccnc(-c2n[nH]c3cnc(-c4cccnc4)cc23)c1 [Example 302, 2-(5-(pyridin-3-yl)-1H-pyrazolo[3,4-c]pyridin-3-yl)isonicotinamide]	8.22
